From patent US20250136722A1, “CYTOTOXICITY TARGETING CHIMERAS” (GLAXOSMITHKLINE INTELLECTUAL PROPERTY DEVELOPMENT LIMITED, priority 2021, published 2025) come the findings set out here.

Each structure is given as a SMILES string. Values joined by “and” are separate entries in the source; they are usually repeats but may differ in a detail not shown here. Identical values can stand only once.

For assay [1], the target named is Anti-cotinine antibody (SEQ ID NO: 11 / SEQ ID NO: 12, rabbit variable region with human IgG1 Fc domain). Kind of assay: Binding of anti-cotinine antibody to ARM compounds by SPR, Biacore T200, 37° C. (Example 202). As to conditions: pH 7.4, rabbit variable region/human IgG1 Fc antibody captured on protein A. The protocol: Anti-cotinine antibodies having a heavy chain sequence of SEQ ID NO: 11 and a light chain sequence of SEQ ID NO: 12 (rabbit variable region with human IgG1 Fc domain containing a DE mutation (S239D/1332E)) were captured on one or more flow cells of a protein A sensor chip (Cytiva) using a Biacore T200 while reserving flow cell 1 as a reference. Following capture, a 3000 second wait step was included to reduce drift during compound analysis. ARM compounds of Formula (I) were then injected at 100 μL/min with 200 and 2000 second association and dissociation times. The entire experiment was run at 37° C. with running buffer containing 10 mM HEPES pH 7.4, 150 mM NaCl, 0.005% P20 and 1% DMSO. ARM compounds of Formula (I) were titrated with a top concentration of 200 nM using a 3-fold 5-point dilution series and a corresponding 5-injection buffer cycle was run for blank subtraction. Data were double referenced by subtracting the response of the reference flow cell from that of the antibody-containing flow cell and subsequently subtracting the referenced blank sensorgrams. Following compound analysis, the surface was regenerated using a 30 second injection of pH 1.5 glycine at a flow rate of 30 μL/min after which antibody was re-captured. The experiment was run using Biacore T200 control software and evaluated using Biacore T200 Evaluation software. Curves were fit with a 1:1 kinetic binding model to obtain kon(1/Ms), koff(1/s), Kd (M) determined as koff/kon, and residence time determined as 1/koff. (s).
Anti-cotinine antibody was tested for binding to ARMs compounds of Formula (I) of the invention in the above assay in or more experimental runs and the results are shown in Table 5 below. Affinity is reported as a pKd value. The pKd value is the negative log of the Kd value, wherein the Kd value is the dissociation constant measured in molar (M) as noted above. For compounds tested in more than one experimental run, the pKd value is reported as an average.
On the technique in general: Surface plasmon resonance follows binding to a sensor surface in real time, without labels.

The target in assay [2] is T1, CHOK1 cells engineered to overexpress human CCR2 (Homo sapiens, UniProt P41597).
T1 construct: expressed in transfected cells; host or cells: CHOK1 cells
Description: Antibody dependent cellular cytotoxicity (ADCC) reporter assay (Example 199). The class given is cell-based. Particulars: with anti-cotinine antibody SEQ ID NO: 11/12; CHOK1-human CCR2 target cells, Jurkat FcγRIIIa NFAT-luciferase reporter cells; 12-18 hours; read-out: ADCC Reporter Assay pEC50 (converted). Summed up: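 Potency is reported as pEC50 from a nonlinear fit, averaged over runs, using luciferase signal divided by that of compound-free wells. The readout comes from NFAT-luciferase Jurkat cells expressing FcγRIIIa, mixed for 12–18 h with human CCR2-overexpressing CHOK1 cells, 1 pM–10 μM ARM compound and 0.01–200 μg/mL Fc-enhanced anti-cotinine IgG1.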
(In general: A reporter such as luciferase makes a cellular process visible.)

As for `CN1C(=O)C[C@H](C(=O)NCCO[C@H]2CC[C@@H](OCCCC(=O)N[C@H]3CC[C@H](C(=O)N[C@@H]4C[C@H](NC(C)(C)C)CC[C@@H]4N4CC[C@H](Nc5ncnc6ccc(C(F)(F)F)cc56)C4=O)CC3)CC2)[C@H]1c1cccnc1` [Example 2], in assay [1], the “pKd of Antibody for ARM Compound of Formula (I)” value (shortened to “pKd of Antibody”) is on record as 9.4775. Further, the EC50 in assay [2] was 5.06 nM. Regarding `CC(C)N(C)[C@@H]1CC[C@H](N2CC[C@H](Nc3ncnc4ccc(C(F)(F)F)cc34)C2=O)[C@H](NC(=O)[C@H]2CC[C@@H](NC(=O)CCCO[C@H]3CC[C@@H](OCCNC(=O)[C@H]4CC(=O)N(C)[C@@H]4c4cccnc4)CC3)CC2)C1` [Example 3], the “pKd of Antibody” value in assay [1] is 9.2795. For the same compound, the EC50 in assay [2] is 0.155 nM and 0.283 nM. Turning to `CC(C)N(C)[C@@H]1CC[C@H](N2CC[C@H](Nc3ncnc4ccc(C(F)(F)F)cc34)C2=O)[C@H](NC(=O)[C@H]2CC[C@H](NC(=O)CCCO[C@H]3CC[C@@H](OCCNC(=O)[C@H]4CC(=O)N(C)[C@@H]4c4cccnc4)CC3)CC2)C1` [Example 4], the “pKd of Antibody” value in assay [1] was 9.526. Besides, the EC50 in assay [2] was 6.3 nM and 2.79 nM and 4.89 nM.

Consider `CC(C)N(C)[C@@H]1CC[C@H](N2CC[C@H](Nc3ncnc4ccc(C(F)(F)F)cc34)C2=O)[C@H](NC(=O)CCOCCNC(=O)CCCO[C@H]2CC[C@@H](OCCNC(=O)[C@H]3CC(=O)N(C)[C@@H]3c3cccnc3)CC2)C1` [Example 6], for which the “pKd of Antibody” value in assay [1] came to 9.282. In addition, in assay [2], the EC50 is 0.378 nM.

`CC(C)N(C)[C@@H]1CC[C@H](N2CC[C@H](Nc3ncnc4ccc(C(F)(F)F)cc34)C2=O)[C@H](NC(=O)[C@H]2CC[C@H](NC(=O)CCCO[C@H]3CC[C@H](OCCNC(=O)[C@H]4CC(=O)N(C5CC5)[C@@H]4c4cccnc4)CC3)CC2)C1` [Example 13]: in assay [1], the “pKd of Antibody” value was determined as 10.511. As to `CC(C)N(C)[C@@H]1CC[C@H](N2CC[C@H](Nc3ncnc4ccc(C(F)(F)F)cc34)C2=O)[C@H](NC(=O)[C@H]2CC[C@H](CNC(=O)CCCC(=O)NCCCOCCCNC(=O)[C@H]3CC(=O)N(C)[C@@H]3c3cccnc3)CC2)C1` [Example 20], the “pKd of Antibody” value in assay [1] is 8.8705. Besides, the EC50 in assay [2] was 0.0832 nM. `CC(C)N(C)[C@@H]1CC[C@H](N2CC[C@H](Nc3ncnc4ccc(C(F)(F)F)cc34)C2=O)[C@H](NC(=O)C2CCN(C(=O)CCOCCOCCOCCNC(=O)[C@H]3CC(=O)N(C)[C@@H]3c3cccnc3)CC2)C1` [Example 29]: in assay [1], the “pKd of Antibody” value stood at 9.3345. Further, in assay [2], the EC50 was 12.6 nM. On to `CN1C(=O)C[C@H](C(=O)NCCOCCOCCOCCC(=O)N[C@H]2CC[C@H](C(=O)N[C@@H]3C[C@H](NC(C)(C)C)CC[C@@H]3N3CC[C@H](Nc4ncnc5ccc(C(F)(F)F)cc45)C3=O)CC2)[C@H]1c1cccnc1` [Example 31], for which the “pKd of Antibody” value in assay [1] is listed as 9.3015. Moreover, the EC50 in assay [2] was 7.94 nM. For `CC(C)N(C)[C@@H]1CC[C@H](N2CC[C@H](Nc3ncnc4ccc(C(F)(F)F)cc34)C2=O)[C@H](NC(=O)[C@H]2CC[C@H](CNC(=O)CCOCCOCCOCCNC(=O)[C@H]3CC(=O)N(C)[C@@H]3c3cccnc3)CC2)C1` [Example 32], the “pKd of Antibody” value in assay [1] is 9.1825. The EC50 in assay [2] is 1.07 nM and 0.593 nM.

Take `CC(C)N(C)[C@@H]1CCC(N2CC[C@H](Nc3ncnc4ccc(C(F)(F)F)cc34)C2=O)[C@H](NC(=O)CCOCCOCCOCCOCCOCCOCCOCCOCCNC(=O)[C@H]2CC(=O)N(C)[C@@H]2c2cccnc2)C1` (stereo partly shown) [Example 42]: in assay [1], the “pKd of Antibody” value is reported as 9.23. Further, the EC50 in assay [2] is 0.398 nM.

Take `CC(C)N(C)[C@@H]1CC[C@H](N2CC[C@H](Nc3ncnc4ccc(C(F)(F)F)cc34)C2=O)[C@H](NC(=O)CCOCCNC(=O)CCOCCNC(=O)CCOCCNC(=O)[C@H]2CC(=O)N(C)[C@@H]2c2cccnc2)C1` [Example 46]: in assay [1], the “pKd of Antibody” value was found to be 9.074. In addition, the EC50 in assay [2] was 0.501 nM. Turning to `CC(C)N(C)[C@@H]1CC[C@H](N2CC[C@H](Nc3ncnc4ccc(C(F)(F)F)cc34)C2=O)[C@H](NC(=O)COCCNC(=O)CCOCCNC(=O)CCOCCNC(=O)[C@H]2CC(=O)N(C)[C@@H]2c2cccnc2)C1` [Example 47], in assay [1], the “pKd of Antibody” value came out at 9.051. Besides, in assay [2], the EC50 was 2.84 nM.

For `CC(C)N(C)[C@@H]1CC[C@H](N2CC[C@H](Nc3ncnc4ccc(C(F)(F)F)cc34)C2=O)[C@H](NC(=O)COCCNC(=O)CCOCCOCCNC(=O)CCNC(=O)[C@H]2CC(=O)N(C)[C@@H]2c2cccnc2)C1` [Example 50], the “pKd of Antibody” value in assay [1] was 9.1485. The EC50 in assay [2] was 1.41 nM. For `CC(C)N(C)[C@@H]1CC[C@H](N2CC[C@H](Nc3ncnc4ccc(C(F)(F)F)cc34)C2=O)[C@H](NC(=O)[C@H]2C[C@H](NC(=O)CCOC[C@H]3CC[C@H](COCCNC(=O)[C@H]4CC(=O)N(C)[C@@H]4c4cccnc4)CC3)C2)C1` [Example 54], in that order: 9.5515 and 1 nM.

As to `CC(C)N(C)[C@@H]1CC[C@H](N2CC[C@H](Nc3ncnc4ccc(C(F)(F)F)cc34)C2=O)[C@H](NC(=O)[C@H]2C[C@@H](NC(=O)CCOC[C@H]3CC[C@H](COCCNC(=O)[C@H]4CC(=O)N(C)[C@@H]4c4cccnc4)CC3)C2)C1` [Example 55], the “pKd of Antibody” value in assay [1] is 9.4085. Also, the EC50 in assay [2] was 0.377 nM. Take `CC(C)N(C)[C@@H]1CC[C@H](N2CC[C@H](Nc3ncnc4ccc(C(F)(F)F)cc34)C2=O)[C@H](NC(=O)[C@H]2CC[C@@H](NC(=O)CCCC(=O)NCCCC(=O)NCCCNC(=O)[C@H]3CC(=O)N(C)[C@@H]3c3cccnc3)CC2)C1` [Example 56, N-((1S,4s)-4-(((1R,2S,5R)-5-(Isopropyl(methyl)amino)-2-((S)-2-oxo-3-((6-(trifluoromethyl)quinazolin-4-yl)amino)pyrrolidin-1-yl)cyclohexyl)carbamoyl)cyclohexyl)-N^5-(4-((3-((2S,3S)-1-methyl-5-oxo-2-(pyridin-3-yl)pyrrolidine-3-carboxamido)propyl)amino)-4-oxobutyl)glutaramide]: the “pKd of Antibody” value in assay [1] is reported as 9.3185. The EC50 in assay [2] is 0.655 nM and 0.128 nM.

With `CC(C)N(C)[C@@H]1CC[C@H](N2CC[C@H](Nc3ncnc4ccc(C(F)(F)F)cc34)C2=O)[C@H](NC(=O)[C@H]2CC[C@@H](NC(=O)CCCOC[C@H]3CC[C@@H](COCCNC(=O)[C@H]4CC(=O)N(C)[C@@H]4c4cccnc4)CC3)CC2)C1` [Example 61], the “pKd of Antibody” value in assay [1] is 9.558.

With `CN1C(=O)C[C@H](C(=O)NCC(=O)NCCOCCOCCC(=O)N[C@H]2CC[C@@H](C(=O)N[C@@H]3C[C@H](NC(C)(C)C)CC[C@@H]3N3CC[C@H](Nc4ncnc5ccc(C(F)(F)F)cc45)C3=O)CC2)[C@H]1c1cccnc1` [Example 65], the “pKd of Antibody” value in assay [1] was determined as 8.648. In addition, the EC50 in assay [2] is 1.4 nM and 0.498 nM. Consider `CC(C)N(C)[C@@H]1CC[C@H](N2CC[C@H](Nc3ncnc4ccc(C(F)(F)F)cc34)C2=O)[C@H](NC(=O)[C@H]2C[C@@H](NC(=O)CCOCCOCCNC(=O)CNC(=O)[C@H]3CC(=O)N(C)[C@@H]3c3cccnc3)C2)C1` [Example 66], for which the “pKd of Antibody” value in assay [1] came out at 8.649. In assay [2], the EC50 was 0.431 nM. As to `CC(C)N(C)[C@@H]1CC[C@H](N2CC[C@H](Nc3ncnc4ccc(C(F)(F)F)cc34)C2=O)[C@H](NC(=O)COCCOCCNC(=O)COCCNC(=O)CCNC(=O)[C@H]2CC(=O)N(C)[C@@H]2c2cccnc2)C1` [Example 74, (2S,3S)-N-(1-(((1R,2S,5R)-5-(isopropyl(methyl)amino)-2-((S)-2-oxo-3-((6-(trifluoromethyl)quinazolin-4-yl)amino)pyrrolidin-1-yl)cyclohexyl)amino)-1,10,16-trioxo-3,6,12-trioxa-9,15-diazaoctadecan-18-yl)-1-methyl-5-oxo-2-(pyridin-3-yl)pyrrolidine-3-carboxamide], the “pKd of Antibody” value in assay [1] came out at 9.091. Moreover, the EC50 in assay [2] is 9.64 nM. As for `CC(C)N(C)[C@@H]1CC[C@H](N2CC[C@H](Nc3ncnc4ccc(C(F)(F)F)cc34)C2=O)[C@H](NC(=O)CCOCCOCCNC(=O)COCCNC(=O)CCNC(=O)[C@H]2CC(=O)N(C)[C@@H]2c2cccnc2)C1` [Example 75], the “pKd of Antibody” value in assay [1] came to 9.103. In addition, the EC50 in assay [2] is 1.63 nM.
